# Assay results published in publication PMC10255489, “Targeting Anti-Inflammatory Pathways to Treat Diabetes-Induced Neuropathy by 6-Hydroxyflavanone” (Nutrients, 2023).
# Tests used:
# 5-lipoxygenase (5-LOX) = biological target: T1, 5-lipoxygenase (5-LOX) (Homo sapiens, UniProt P09917); experiment: UV ([…] nm) linoleic acid to HPOD assay, human recombinant 5-LOX; format: biochemical
# T1 construct: gene ALOX5
# T1 sequence (P09917 1-674): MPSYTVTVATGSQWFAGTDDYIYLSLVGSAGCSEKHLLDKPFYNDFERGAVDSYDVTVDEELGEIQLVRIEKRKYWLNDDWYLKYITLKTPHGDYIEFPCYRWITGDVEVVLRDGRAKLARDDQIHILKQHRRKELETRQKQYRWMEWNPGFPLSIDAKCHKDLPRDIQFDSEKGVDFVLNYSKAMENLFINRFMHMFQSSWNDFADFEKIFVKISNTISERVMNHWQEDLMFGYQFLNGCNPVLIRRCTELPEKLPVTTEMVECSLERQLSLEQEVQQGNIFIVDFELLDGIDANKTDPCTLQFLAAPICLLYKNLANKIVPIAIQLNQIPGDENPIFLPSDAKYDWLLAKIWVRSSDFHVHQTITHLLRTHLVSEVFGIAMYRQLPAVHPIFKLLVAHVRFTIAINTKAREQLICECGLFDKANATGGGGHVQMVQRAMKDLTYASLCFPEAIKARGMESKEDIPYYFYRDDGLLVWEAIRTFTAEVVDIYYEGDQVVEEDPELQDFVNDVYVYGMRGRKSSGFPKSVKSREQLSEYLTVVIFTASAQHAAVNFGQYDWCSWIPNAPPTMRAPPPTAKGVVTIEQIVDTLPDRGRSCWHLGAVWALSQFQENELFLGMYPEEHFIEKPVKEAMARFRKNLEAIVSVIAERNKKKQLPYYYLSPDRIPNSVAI
# cyclooxygenase-2 (COX-2) = biological target: T2, cyclooxygenase-2 (COX-2) (Homo sapiens, UniProt P35354); experiment: colorimetric COX inhibitor screening assay (Cayman […]), human recombinant COX-2
# T2 construct: gene PTGS2
# T2 sequence (P35354 18-604): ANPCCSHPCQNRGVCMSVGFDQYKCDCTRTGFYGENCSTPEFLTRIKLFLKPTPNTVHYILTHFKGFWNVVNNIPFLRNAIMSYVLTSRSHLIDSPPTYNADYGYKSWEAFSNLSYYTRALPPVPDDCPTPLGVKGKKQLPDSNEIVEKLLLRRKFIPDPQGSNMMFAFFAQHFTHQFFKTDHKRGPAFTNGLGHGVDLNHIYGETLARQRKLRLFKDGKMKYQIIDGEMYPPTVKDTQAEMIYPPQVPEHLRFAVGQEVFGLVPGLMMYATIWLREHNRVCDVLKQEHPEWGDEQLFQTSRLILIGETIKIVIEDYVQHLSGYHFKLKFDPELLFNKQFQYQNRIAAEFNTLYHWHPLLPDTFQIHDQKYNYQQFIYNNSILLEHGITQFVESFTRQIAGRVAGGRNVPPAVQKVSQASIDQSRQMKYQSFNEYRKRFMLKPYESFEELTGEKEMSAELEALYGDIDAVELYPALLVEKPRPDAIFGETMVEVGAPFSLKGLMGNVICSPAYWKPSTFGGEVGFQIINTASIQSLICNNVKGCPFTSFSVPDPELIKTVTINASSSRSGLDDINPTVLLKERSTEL
compound,measurement,setting,value
"O=C1CC(c2ccccc2)Oc2ccc(O)cc21 (centres unmarked) [6-HF, 6-Hydroxyflavanone]",IC50,5-lipoxygenase (5-LOX),36 µM
same,IC50,cyclooxygenase-2 (COX-2),21.9 µM
